According to PubChem BioAssay AID1259407 (Chemical Carcinogenesis Research Information System (CCRIS), 2018):
Activity calls are given as the source filed them. How the calls were made is not given here.

Tested on: CCRIS mutagenicity, Ames/micronucleus/aberration tests
Assay: CCRIS mutagenicity studies
[1] = Test System: AMES SALMONELLA TYPHIMURIUM, Strain/Indicator: TA98, Metabolic Activation: NONE, Method: STANDARD PLATE
[2] = Test System: AMES SALMONELLA TYPHIMURIUM, Strain/Indicator: TA100, Metabolic Activation: NONE, Method: STANDARD PLATE
[3] = Test System: AMES SALMONELLA TYPHIMURIUM, Strain/Indicator: TA1537, Metabolic Activation: NONE, Method: STANDARD PLATE

With `OCCNc1ccc(N=Nc2ccc(N(CCO)CCO)cc2)cc1` the mutagenic call (Test System: AMES SALMONELLA TYPHIMURIUM, Strain/Indicator: TA98, Metabolic Activation: HAMSTER, LIVER, S-9, AROCLOR 1254, Method: STANDARD PLATE) was “inactive; negative”, the mutagenic call [1] was “inactive; negative” and the mutagenic call (Test System: AMES SALMONELLA TYPHIMURIUM, Strain/Indicator: TA98, Metabolic Activation: RAT, LIVER, S-9, AROCLOR 1254, Method: PREINCUBATION) was “inactive; negative”. The mutagenic call (Test System: AMES SALMONELLA TYPHIMURIUM, Strain/Indicator: TA98, Metabolic Activation: RAT, LIVER, S-9, AROCLOR 1254, Method: STANDARD PLATE) was “inactive; negative”, the mutagenic call [2] was “inactive; negative” and the mutagenic call (Test System: AMES SALMONELLA TYPHIMURIUM, Strain/Indicator: TA100, Metabolic Activation: RAT, LIVER, S-9, AROCLOR 1254, Method: STANDARD PLATE) was “inactive; negative”. For the same molecule, the mutagenic call (Test System: AMES SALMONELLA TYPHIMURIUM, Strain/Indicator: TA1535, Metabolic Activation: NONE, Method: STANDARD PLATE) was “inactive; negative”, the mutagenic call (Test System: AMES SALMONELLA TYPHIMURIUM, Strain/Indicator: TA1535, Metabolic Activation: RAT, LIVER, S-9, AROCLOR 1254, Method: STANDARD PLATE) was “inactive; negative” and the mutagenic call [3] was “inactive; negative”. For the same molecule, the mutagenic call (Test System: AMES SALMONELLA TYPHIMURIUM, Strain/Indicator: TA1537, Metabolic Activation: RAT, LIVER, S-9, AROCLOR 1254, Method: STANDARD PLATE) was “inactive; negative”, the mutagenic call (Test System: AMES SALMONELLA TYPHIMURIUM, Strain/Indicator: TA1538, Metabolic Activation: NONE, Method: STANDARD PLATE) was “inactive; negative” and the mutagenic call (Test System: AMES SALMONELLA TYPHIMURIUM, Strain/Indicator: TA1538, Metabolic Activation: RAT, LIVER, S-9, AROCLOR 1254, Method: STANDARD PLATE) was “inactive; negative”.
For `Brc1ccc2c(c1)[C@H]1O[C@H]1[C@H]1CCCC[C@H]21`, the mutagenic call [1] was “inactive; negative” and the mutagenic call [2] was “inactive; negative”.
With `ONc1ccc(I)cc1` the mutagenic call (Test System: E. COLI, Strain/Indicator: WP2 UVRA, Metabolic Activation: NONE, Method: FLUCTUATION TEST) was “inactive; negative”.
With `CNC(N)=O` the mutagenic call (End Point: IN VITRO MICRONUCLEUS, Test System: V79 CELLS, Metabolic Activation: NONE) was “inactive; negative”.
In the case of `O=C(Nc1snc2ccccc12)c1ccccc1`, the mutagenic call [2] is reported as “inactive; negative”, the mutagenic call (Test System: AMES SALMONELLA TYPHIMURIUM, Strain/Indicator: TA100, Metabolic Activation: S-9, Method: STANDARD PLATE) is reported as “active; positive” and the mutagenic call [3] is reported as “inactive; negative”. The mutagenic call (Test System: AMES SALMONELLA TYPHIMURIUM, Strain/Indicator: TA1537, Metabolic Activation: S-9, Method: STANDARD PLATE) was “inactive; negative”.
`CCCCCCCCCCCC(=O)[O][Sn]([CH2]CCC)([CH2]CCC)[O]C(=O)CCCCCCCCCCC` was tested, and the mutagenic call (Test System: AMES SALMONELLA TYPHIMURIUM, Strain/Indicator: TA97, Metabolic Activation: HAMSTER, LIVER, S-9, AROCLOR 1254 (10%), Method: PREINCUBATION) was “inactive; negative”, the mutagenic call (Test System: AMES SALMONELLA TYPHIMURIUM, Strain/Indicator: TA97, Metabolic Activation: HAMSTER, LIVER, S-9, AROCLOR 1254 (30%), Method: PREINCUBATION) was “inactive; negative” and the mutagenic call (Test System: AMES SALMONELLA TYPHIMURIUM, Strain/Indicator: TA97, Metabolic Activation: NONE, Method: PREINCUBATION) was “inactive; negative”. The mutagenic call (Test System: AMES SALMONELLA TYPHIMURIUM, Strain/Indicator: TA97, Metabolic Activation: RAT, LIVER, S-9, AROCLOR 1254 (10%), Method: PREINCUBATION) was “inactive; negative”, the mutagenic call (Test System: AMES SALMONELLA TYPHIMURIUM, Strain/Indicator: TA97, Metabolic Activation: RAT, LIVER, S-9, AROCLOR 1254 (30%), Method: PREINCUBATION) was “inactive; negative” and the mutagenic call (Test System: AMES SALMONELLA TYPHIMURIUM, Strain/Indicator: TA98, Metabolic Activation: HAMSTER, LIVER, S-9, AROCLOR 1254 (10%), Method: PREINCUBATION) was “inactive; negative”. For the same molecule, the mutagenic call (Test System: AMES SALMONELLA TYPHIMURIUM, Strain/Indicator: TA98, Metabolic Activation: HAMSTER, LIVER, S-9, AROCLOR 1254 (30%), Method: PREINCUBATION) was “inactive; negative”, the mutagenic call (Test System: AMES SALMONELLA TYPHIMURIUM, Strain/Indicator: TA98, Metabolic Activation: NONE, Method: PREINCUBATION) was “inactive; negative” and the mutagenic call (Test System: AMES SALMONELLA TYPHIMURIUM, Strain/Indicator: TA98, Metabolic Activation: RAT, LIVER, S-9, AROCLOR 1254 (10%), Method: PREINCUBATION) was “inactive; negative”. For the same molecule, the mutagenic call (Test System: AMES SALMONELLA TYPHIMURIUM, Strain/Indicator: TA98, Metabolic Activation: RAT, LIVER, S-9, AROCLOR 1254 (30%), Method: PREINCUBATION) was “inactive; negative”, the mutagenic call (Test System: AMES SALMONELLA TYPHIMURIUM, Strain/Indicator: TA100, Metabolic Activation: HAMSTER, LIVER, S-9, AROCLOR 1254 (10%), Method: PREINCUBATION) was “inactive; negative” and the mutagenic call (Test System: AMES SALMONELLA TYPHIMURIUM, Strain/Indicator: TA100, Metabolic Activation: HAMSTER, LIVER, S-9, AROCLOR 1254 (30%), Method: PREINCUBATION) was “inactive; negative”. The mutagenic call (Test System: AMES SALMONELLA TYPHIMURIUM, Strain/Indicator: TA100, Metabolic Activation: NONE, Method: PREINCUBATION) was “inactive; negative”, the mutagenic call (Test System: AMES SALMONELLA TYPHIMURIUM, Strain/Indicator: TA100, Metabolic Activation: RAT, LIVER, S-9, AROCLOR 1254 (10%), Method: PREINCUBATION) was “inactive; negative” and the mutagenic call (Test System: AMES SALMONELLA TYPHIMURIUM, Strain/Indicator: TA100, Metabolic Activation: RAT, LIVER, S-9, AROCLOR 1254 (30%), Method: PREINCUBATION) was “inactive; negative”. The mutagenic call (Test System: AMES SALMONELLA TYPHIMURIUM, Strain/Indicator: TA1535, Metabolic Activation: HAMSTER, LIVER, S-9, AROCLOR 1254 (10%), Method: PREINCUBATION) was “inactive; negative”, the mutagenic call (Test System: AMES SALMONELLA TYPHIMURIUM, Strain/Indicator: TA1535, Metabolic Activation: HAMSTER, LIVER, S-9, AROCLOR 1254 (30%), Method: PREINCUBATION) was “inactive; negative” and the mutagenic call (Test System: AMES SALMONELLA TYPHIMURIUM, Strain/Indicator: TA1535, Metabolic Activation: NONE, Method: PREINCUBATION) was “inactive; negative”. For the same molecule, the mutagenic call (Test System: AMES SALMONELLA TYPHIMURIUM, Strain/Indicator: TA1535, Metabolic Activation: RAT, LIVER, S-9, AROCLOR 1254 (10%), Method: PREINCUBATION) was “inactive; negative” and the mutagenic call (Test System: AMES SALMONELLA TYPHIMURIUM, Strain/Indicator: TA1535, Metabolic Activation: RAT, LIVER, S-9, AROCLOR 1254 (30%), Method: PREINCUBATION) was “inactive; negative”.
For `Fc1cnc2ccc3ccccc3c2c1`, the mutagenic call (Test System: AMES SALMONELLA TYPHIMURIUM, Strain/Indicator: TA100, Metabolic Activation: RAT, LIVER, S-9, PHENOBARBITAL AND 5,6-BENZOFLAVONE, Method: PREINCUBATION) was “active; positive”.
